Patent US20120058936A1, “COMPOSITIONS AND METHODS FOR ELIMINATION OF GRAM NEGATIVE BACTERIA” (ASSISTANCE PUBLIQUE - HOPITAUX DE PARIS, priority 2009, published 2012)
Entries after “also recorded” stand apart in the source; their conditions may differ.

How the values were obtained:
[1] = tested on: enterobacteria present in the colon; settings: oral treatment; azithromycin daily dose of 500 mg; cited from earlier work
[2] = BioDis (USP III) release test in simulated human gastrointestinal fluids; format: physicochemical; settings: Biodiss system; successively soaked in simulated gastric, proximal jejunum, late jejunum, ileum and colon fluids (FIG. 2)
Method: In a particular embodiment, the intermediate coating is selected in order to achieve a delayed and/or controlled release of the antibacterial, as measured by in vitro testing such as BioDis dissolution tester (USP III release apparatus). In this system, the dosage form is successively placed into glass tubes (filled with approx 200 mL of dissolution media) corresponding to the different sections of the gastrointestinal tract, such as described by Fotaki and Coll, in European Journal of Pharmaceutics and Biopharmaceutics 73 (2009) 115-120. This allows a good simulation of in vivo release before testing into mammals. pH, fed state and various other physiological conditions can be tested. Using the BioDis system, it is possible for those skilled in the art to finely tune the formulation to achieve a desired pre-determined delayed release. It will be understood that this method is also useful for testing any kind of drug delivery system intended to deliver the antimicrobial(s) in a desired part of the intestine.
Legend: FIG. 1: Release of azithromycine in simulated human gastrointestinal tract using a Biodis system. The azithromycin cellet formulation, coated with 35% FS30D (Batch GL-058B4), is successively soaked into simulated fluids such as gastric, proximal jejunum, late jejunum, Ileum and colon. […]

erythrocyte = settings: MIC for many bacteria; cited from earlier work

CC[C@H]1OC(=O)[C@H](C)[C@@H](O[C@H]2C[C@@](C)(OC)[C@@H](O)[C@H](C)O2)[C@H](C)[C@@H](O[C@@H]2O[C@H](C)C[C@H](N(C)C)[C@H]2O)[C@](C)(O)C[C@@H](C)CN(C)[C@H](C)[C@@H](O)[C@]1(C)O [Azithromycin]
elimination of enterobacteria from the colon [1]: effective to eliminate Gram-negative enterobacteria from the colon

CC[C@H]1OC(=O)[C@H](C)[C@@H](O[C@H]2C[C@@](C)(OC)[C@@H](O)[C@H](C)O2)[C@H](C)[C@@H](O[C@@H]2O[C@H](C)C[C@H](N(C)C)[C@H]2O)[C@](C)(O)C[C@@H](C)C(=O)[C@H](C)[C@@H](O)[C@]1(C)O [erythromycin]
elimination of enterobacteria from the colon [1]: eliminated from the lumen

colistin
Release of colistin in simulated human gastrointestinal tract [2]: improves the release of colistin; also recorded: prevent from total colistin release

gramicidin S
concentration causing erythrocyte lysis relative to the MIC (erythrocyte): threefold higher than the MIC
